Several values for one entry are separate records, joined by “and”; a condition that tells them apart may be missing. Equal entries are not always repeated.
Target: T1, fluorescein-streptavidin (Streptomyces avidinii, UniProt P22629)
T1 construct: purchased Calbiochem-Novabiochem Corp., La Jolla, Calif; 189734
Assay: Fluorescence emission standard curve, streptavidin-fluorescein (evaluation of linker 3)
Settings: for Fluorescence emission (standard curve): replicates
Text: FIG. 8 is a plot of data from Table 8, derived from evaluation of linker 3;

T1 sequence (P22629 25-183): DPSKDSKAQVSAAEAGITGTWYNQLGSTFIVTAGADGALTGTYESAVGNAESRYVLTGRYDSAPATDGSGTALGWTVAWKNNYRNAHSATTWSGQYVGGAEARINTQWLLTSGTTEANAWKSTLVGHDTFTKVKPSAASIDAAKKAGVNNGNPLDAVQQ

## O=C(CCCCCNC(=O)CCCCCNC(=O)CCCCC1SCC2NC(=O)NC21)NCCCCCNC(=O)CCCCCNC(=O)CCCCC1SCC2NC(=O)NC21 (stereo not shown) [Linker 3]
[ST/FL] 7.4 pmol
  Fluorescence emission (standard curve), mean of Columns 1-3: 150.37
  Fluorescence emission (standard curve), sum of Columns 1-2: 283.8
  Fluorescence emission (standard curve), sum of Columns 1-3: 451.1
  Fluorescence emission (standard curve): 112.81 and 170.99 and 167.3
[ST/FL] 11.0 pmol
  Fluorescence emission (standard curve), mean of Columns 1-3: 245.76
  Fluorescence emission (standard curve), sum of Columns 1-2: 498.27
  Fluorescence emission (standard curve), sum of Columns 1-3: 737.28
  Fluorescence emission (standard curve): 270.54 and 227.73 and 239.01
[ST/FL] 15.0 pmol
  Fluorescence emission (standard curve), mean of Columns 1-3: 281.62
  Fluorescence emission (standard curve), sum of Columns 1-2: 566.42
  Fluorescence emission (standard curve), sum of Columns 1-3: 844.85
  Fluorescence emission (standard curve): 307.82 and 258.6 and 278.43
[ST/FL] 18.0 pmol
  Fluorescence emission (standard curve), mean of Columns 1-3: 311.00
  Fluorescence emission (standard curve), sum of Columns 1-2: 633.01
  Fluorescence emission (standard curve), sum of Columns 1-3: 933.0
  Fluorescence emission (standard curve): 361.66 and 271.35 and 299.99
[ST/FL] 22.0 pmol
  Fluorescence emission (standard curve), mean of Columns 1-3: 350.48
  Fluorescence emission (standard curve), sum of Columns 1-2: 723.72
  Fluorescence emission (standard curve), sum of Columns 1-3: 1051.4
  Fluorescence emission (standard curve): 363.91 and 359.81 and 327.71
[ST/FL] 26.0 pmol
  Fluorescence emission (standard curve), mean of Columns 1-3: 461.85
  Fluorescence emission (standard curve), sum of Columns 1-2: 944.08
  Fluorescence emission (standard curve), sum of Columns 1-3: 1385.6
  Fluorescence emission (standard curve): 496.71 and 447.37 and 441.48
[ST/FL] 29.0 pmol
  Fluorescence emission (standard curve), mean of Columns 1-3: 472.31
  Fluorescence emission (standard curve), sum of Columns 1-2: 1001.7
  Fluorescence emission (standard curve), sum of Columns 1-3: 1416.9
  Fluorescence emission (standard curve): 495.93 and 505.81 and 415.18
[ST/FL] 36.0 pmol
  Fluorescence emission (standard curve), mean of Columns 1-3: 567.49
  Fluorescence emission (standard curve), sum of Columns 1-2: 1141.1
  Fluorescence emission (standard curve), sum of Columns 1-3: 1702.5
  Fluorescence emission (standard curve): 569.16 and 571.94 and 561.36
[ST/FL] 45.0 pmol
  Fluorescence emission (standard curve), mean of Columns 1-3: 697.34
  Fluorescence emission (standard curve), sum of Columns 1-2: 1374.6
  Fluorescence emission (standard curve), sum of Columns 1-3: 2092.0
  Fluorescence emission (standard curve): 688.65 and 685.98 and 717.4
[ST/FL] 60.0 pmol
  Fluorescence emission (standard curve), mean of Columns 1-3: 847.26
  Fluorescence emission (standard curve), sum of Columns 1-2: 1651.9
  Fluorescence emission (standard curve), sum of Columns 1-3: 2541.8
  Fluorescence emission (standard curve): 837.57 and 816.34 and 889.88

Source: patent US20020068367A1, “Linker and method for solid phase combinatorial synthesis” (priority 2000, published 2002)
